According to the supplement of paper PMC10307832:

Legend:
Experiment in all cases: relative viability (nuclei count vs DMSO), 5 days (fraction); higher = more cells survive
YM155 + Pemetrexed = compound: COCC[n+]1c2c(n(Cc3cnccn3)c1C)C(=O)c1ccccc1C2=O [YM155] + Nc1nc2[nH]cc(CCc3ccc(C(=O)N[C@@H](CCC(=O)O)C(=O)O)cc3)c2c(=O)[nH]1 [Pemetrexed] (partner 0.2 µM)
Procedure, shortened: (§1)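 Each reported value is a median over duplicate plates. It expresses relative viability: treated-well nuclei count divided by vehicle-well nuclei count. Lung cancer cell lines in 1536-well plates were dosed by pin tool a day after seeding, alone with one drug or with a fixed anchor-drug dose plus five library-drug doses (not always all listed) in √10 steps, and nuclei were counted after 5 days.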

Quizartinib + OSI-027 = compound: CC(C)(C)c1cc(NC(=O)Nc2ccc(-c3cn4c(n3)sc3cc(OCCN5CCOCC5)ccc34)cc2)no1 [Quizartinib] + COc1cccc2cc(-c3nc([C@H]4CC[C@H](C(=O)O)CC4)n4ncnc(N)c34)[nH]c12 [OSI-027] (partner 0.5 µM)
Procedure, shortened: as §1

YM155 = compound: COCC[n+]1c2c(n(Cc3cnccn3)c1C)C(=O)c1ccccc1C2=O [YM155]
Procedure, shortened: (§2)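 Viability was defined as treated-well nuclei divided by vehicle-well nuclei, with the median taken over replicate plates. Cells from lung cancer lines sat overnight at 37 °C in 1536-well plates, received five √10-spaced library-drug doses by pinning on vehicle-anchored plates, and grew 5 days without medium change before one-step fixation, permeabilisation and Hoechst staining, 4× imaging and MetaXpress nuclear counts. Only plates with control CV under 25% and at least one doubling were kept.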

Quizartinib = compound: CC(C)(C)c1cc(NC(=O)Nc2ccc(-c3cn4c(n3)sc3cc(OCCN5CCOCC5)ccc34)cc2)no1 [Quizartinib]
Procedure, shortened: as §2

Row | Cell Line | relative viability (YM155 + Pemetrexed; first compound 0.002 µM) | relative viability (YM155 + Pemetrexed; first compound 0.006325 µM) | relative viability (YM155 + Pemetrexed; first compound 0.02 µM) | relative viability (YM155 + Pemetrexed; first compound 0.06325 µM) | relative viability (Quizartinib + OSI-027; first compound 0.001 µM) | relative viability (Quizartinib + OSI-027; first compound 0.003162 µM) | relative viability (Quizartinib + OSI-027; first compound 0.01 µM) | relative viability (Quizartinib + OSI-027; first compound 0.03162 µM) | relative viability (Quizartinib + OSI-027; first compound 0.1 µM) | relative viability (YM155; 0.002 µM) | relative viability (YM155; 0.006325 µM) | relative viability (YM155; 0.02 µM) | relative viability (YM155; 0.06325 µM) | relative viability (Quizartinib; 0.001 µM) | relative viability (Quizartinib; 0.003162 µM) | relative viability (Quizartinib; 0.01 µM) | relative viability (Quizartinib; 0.03162 µM) | relative viability (Quizartinib; 0.1 µM)
1 | LU99A | 0.164 | 0.2 | 0.153 | 0.177 | 0.282 | 0.3 | 0.282 | 0.319 | 0.327 | 1.01 | 1.01 | 0.984 | 0.938 | 0.889 | 0.906 | 1.05 | 1.09 | 0.842
2 | EKVX | 0.431 | 0.437 | 0.399 | 0.234 | 0.43 | 0.691 | 0.656 | 0.674 | 0.728 | 0.927 | 1.07 | 1.01 | 0.857 | 0.704 | 1 | 0.99 | 0.935 | 1.05
3 | LC-2-ad | 0.287 | 0.248 | 0.28 | 0.262 | 0.842 | 0.866 | 0.757 | – | 0.626 | 0.914 | 0.978 | 0.972 | 0.913 | 0.827 | 1.02 | 0.972 | 0.863 | 0.892
4 | EBC-1 | – | – | – | – | – | – | – | – | – | 0.954 | 0.971 | 1.07 | 1 | 0.891 | 0.871 | 0.981 | 0.922 | 0.977
5 | PC-14 | 0.126 | 0.136 | 0.148 | 0.141 | 0.737 | 0.754 | 1 | – | 0.882 | 0.939 | 1.02 | 1.03 | 0.931 | 0.884 | 0.985 | 1.09 | 0.833 | 1.18
6 | NCI-H1395 | 0.857 | 0.737 | 1.03 | 0.906 | 0.697 | 0.749 | 0.645 | 0.586 | 0.691 | 0.898 | 0.946 | 1.12 | 0.985 | 0.93 | 0.949 | 0.841 | 0.811 | 1.16
7 | NCI-H2405 | 0.886 | 0.961 | 0.914 | 0.452 | 0.653 | 0.702 | 0.736 | 0.644 | 0.626 | 0.952 | 0.903 | 0.956 | 0.595 | 0.986 | 1.03 | 0.955 | 0.958 | 1.06
8 | SW 900 | – | 0.492 | 0.489 | 0.47 | 0.533 | 0.508 | – | 0.512 | 0.569 | 0.71 | 0.828 | 0.869 | 0.729 | 0.823 | 1.12 | 0.745 | 0.803 | 0.994
9 | NCI-H2009 | 0.93 | 1.07 | 0.85 | 0.528 | 0.546 | 0.614 | 0.62 | 0.664 | 0.724 | 0.976 | 0.992 | 1.02 | 0.836 | 0.903 | 0.937 | 0.995 | 1.02 | 0.96
10 | EPLC-272H | 0.327 | 0.309 | 0.316 | 0.319 | 0.249 | 0.28 | 0.264 | 0.271 | 0.263 | 0.883 | 0.989 | 1.01 | 1.15 | 0.878 | 1.08 | 1.03 | 1.04 | 0.761
11 | LCLC-103H | 0.473 | 0.453 | 0.416 | 0.463 | 0.432 | 0.503 | 0.422 | 0.475 | 0.487 | 0.996 | 0.941 | 0.932 | 1.02 | 0.87 | 0.983 | 0.911 | 0.994 | 0.971
12 | NCI-H1650 | 0.35 | 0.348 | 0.321 | 0.249 | 0.414 | 0.738 | 0.598 | – | 0.494 | 0.867 | 0.921 | 0.863 | 0.739 | 0.877 | 0.976 | 0.918 | – | 1
13 | SW 1573 | 0.867 | 0.835 | 0.362 | 0.0865 | 0.423 | 0.59 | 0.573 | – | 0.666 | 1.02 | 0.939 | 0.803 | 0.394 | 0.87 | 0.971 | 1.09 | 0.481 | 1.08
14 | NCI-H1703 | – | – | – | – | – | – | – | – | – | 0.808 | 0.807 | 0.767 | 0.444 | 0.847 | 0.527 | 0.256 | 0.264 | 0.316
15 | NCI-H2087 | 0.639 | 0.677 | 0.685 | 0.604 | – | 0.583 | 0.486 | 0.514 | 0.496 | 1.07 | 1.03 | 1.1 | 0.856 | 0.85 | 0.784 | 1.24 | 1.09 | 1.11
16 | Calu-6 | – | – | – | – | – | – | – | – | – | 0.992 | 0.996 | 0.557 | 0.186 | 0.902 | 0.982 | 1.05 | 0.879 | 1.02
17 | ABC-1 | – | – | – | – | 0.428 | 0.472 | 0.495 | 0.383 | 0.415 | 0.707 | 0.61 | 0.396 | 0.219 | 0.771 | 0.825 | 0.817 | 0.673 | 0.913
18 | NCI-H727 | – | – | – | – | 0.412 | 0.624 | 0.539 | 0.869 | 0.699 | 0.932 | 0.933 | 0.967 | 1.04 | 0.7 | 0.899 | 0.883 | 0.83 | 0.96
19 | A549 | – | – | – | – | – | – | – | – | – | 1.02 | 0.984 | 0.995 | 0.906 | 0.751 | 0.976 | 0.928 | 0.884 | 1.05
20 | NCI-H1623 | – | – | – | – | 0.457 | 0.419 | 0.41 | 0.383 | 0.412 | 0.934 | 1.29 | 1.02 | 1.02 | 0.845 | 1.12 | 0.905 | 0.977 | 1.09
